5 compounds from patent US5679638A, “Method for treating a tumor with a chemotherapeutic agent” (Biopure Corporation, priority 1993, dated 1997) can be followed below.

Values joined by “and” are separate entries in the source; they are usually repeats but may differ in a detail not shown here. Equal values may be shown once. Where a name gives a salt, the structure may show the parent alone.

Test [1] concerns Lewis lung carcinoma lung metastases. Nature of the test: Lung metastases of Lewis lung carcinoma. It is filed as in vivo, mouse (male C57BL). Set-up: Lung Metastases: unit not given here. The method, then:
(§1) The Lewis lung tumor was carried in male C57BL mice (Taconic Laboratories, Germantown, N.Y.). For the experiments, 2×10^6 tumor cells prepared from a brei of several stock tumors were implanted subctaneously into the legs of male mice aged 8-10 weeks. […] Animals bearing Lewis lung tumors were treated daily with intraperitoneal Mino (10 mg/kg), Diflun (15 mg/kg) or Sulin (15 mg/kg) on days 4-18 following tumor implantation. When the tumors had reached a volume of approximately 100 mm^3 (day 7 after tumor cell implantation), cytotoxic therapy was initiated.
Therapy consisted of treatment with an antitumor alkylating agent, an antitumor antimetabolite, a non-steroidal anti-inflammatory drug (NSAID) and/or UPHS. […] CTX therapy consisted of three successive 150 mg/kg CTX doses administered by intraperitoneal injections on days 7, 9 and 11. BCNU therapy consisted of three successive 15 mg/Kg BCNU doses administered by intraperitoneal injections on days 7, 9 and 11. Therapy with the antimetabolite 5-fluorouracil(5-FU) consisted of 4 successive 40 mg/kg 5-FU doses administered by intraperitoneal injections daily on days 7 to 11. The 5-FU was purchased from Sigma Chemical Co., St. Louis, Mo. Fourteen doses of 10 mg/kg of NSAID were administered daily by intraperitoneal injections on days 4 to 18. UPHS was injected into the tail vein in 8 ml/kg doses daily on days 7-11. […]

For test [2], the system named is Lewis lung carcinoma. Nature of the test: Lewis lung carcinoma growth delay. It is filed as in vivo, mouse (male C57BL). The following applies: for Lewis lung carcinoma growth delay, Mean Days: NSAID days 4-18. The method, then: as §1
Therapy consisted of treatment with an antitumor alkylating agent, an antitumor antimetabolite, a non-steroidal anti-inflammatory drug (NSAID) and/or UPHS. […] CTX therapy consisted of three successive 150 mg/kg CTX doses administered by intraperitoneal injections on days 7, 9 and 11. BCNU therapy consisted of three successive 15 mg/Kg BCNU doses administered by intraperitoneal injections on days 7, 9 and 11. Therapy with the antimetabolite 5-fluorouracil(5-FU) consisted of 4 successive 40 mg/kg 5-FU doses administered by intraperitoneal injections daily on days 7 to 11. The 5-FU was purchased from Sigma Chemical Co., St. Louis, Mo. Fourteen doses of 10 mg/kg of NSAID were administered daily by intraperitoneal injections on days 4 to 18. UPHS was injected into the tail vein in 8 ml/kg doses daily on days 7-11.
The progress of each tumor was measured thrice weekly until it had reached a volume of 500 mm^3. Tumor growth delay was calculated as the number of days required for each treated tumor to reach a volume of 500 mm^3 as compared with untreated control tumors. Each treatment group comprised six animals and the experiment was repeated three times.
On the twentieth day after the subcutaneous tumor implantation, the delay in Lewis Lung Carcinoma tumor growth was evaluated. Tumor growth delay data is presented as the mean value ±SE calculated for the treatment group as compared with the control group.

Test [3] relates to subcutaneous 9L gliosarcoma. As to the kind of experiment: Subcutaneous 9L gliosarcoma tumor growth delay. It is filed as in vivo, rat (male Fischer 344). As for the experimental part:
(§2) The 9L gliosarcoma (9L) cells were obtained as a gift of 9L/SF gliosarcoma cells from Dr. Dennis Dean, University of California, San Francisco. These cells were maintained in culture in .varies.-MEM (Grand Island Biological Co., Grand Island, N.Y.) and supplemented with 10% fetal bovine serum (Sterile Systems, Inc., Logan, Utah) and with antibiotics. The 9L cells (4×10^4) in 10 μL of media without serum were implanted intracranially in male Fischer 344 rats (Taconic Farms, Germantown, N.Y.) weighing 200-250 gm on day 0. Each rat was anesthetized with sodium pentobarbital. A midline scalp incision was made and a hole was bored through the skull with 23 gauge needle at a point 2 mm lateral to the midline. The cell suspension was injected into the right frontal lobe at a depth of 3 mm from the dural surface. The needle was removed and the hole filled with dental cement. The scalp was sealed with a surgical clip. Two days later 9L cells (2×10^6) were implanted subcutaneously into the flank of each animal. When the tumors were approximately 100 mm^3 in volume, 7 days after tumor cell implantation, 8 ml/kg of UPHS was injected via the tail vein. After injecting the UPHS, administration of chemotherapeutic agents was initiated. […] BCNU therapy consisted of three 15 mg/kg BCNU doses administered by intraperitoneal injection days 7, 9 and 11. CTX and ifosfamide (IFOS) therapy consisted of three 100 mg/kg CTX or IFOS doses administered by intraperitoneal injection on days 7, 9 and 11. For the BCNU, CTX and IFOS therapies, UPHS was intravenously administered prior to each chemotherapeutic agent injection on days 7, 9 and 11. The IFOS was purchased from the Dana-Farber Cancer Institute. Survival of animals was monitored daily. Animals that were moribund or unable to reach food or water were killed by CO2 inhalation.
The progress of each subcutaneous tumor was measured 3 times/week until it reached a volume of 500 mm^3. Tumor growth delay was calculated as the number of days for each individual tumor to reach 500 mm^3 compared with untreated controls. Each treatment group had 4 animals and the experiment was repeated twice. Days of tumor growth delay are the mean ±SE for the treatment group compared with the control.

Test [4] deals with intracranial 9L gliosarcoma. Nature of the test: Life span of rats with intracranial 9L gliosarcoma. It is filed as in vivo, rat (male Fischer 344). The method, then: as §2
The effect of the treatments on the growth of the intracranial tumor was determined by the increase in life span of treated groups compared with the untreated controls. A percentage increase in life span of 25% or more is therapeutically significant.

[5] abbreviates: WITH UPHS (8 ml/kg daily days 7-11), CDDP or PAM 10 mg/kg, CTX 3 x 150, BCNU 3 x 15, 5-FU 40 mg/kg.
Setting [6] is: WITHOUT UPHS, CDDP or PAM 10 mg/kg day 7, CTX 3 x 150, BCNU 3 x 15 mg/kg days 7, 9, 11, 5-FU 40 mg/kg.
Setting [7] is: relative statement among BCNU, CTX, CDDP, IFOS.

As for `O=c1[nH]cc(F)c(=O)[nH]1` [5-FU, 5-fluorouracil], the “Lung Metastases” value in test [1] (WITH UPHS) is on record as 15; in test [1] (WITHOUT UPHS), 21. Further, the “Lung Metastases (% Large)” value is on record as 40% in test [1] (WITH UPHS) and 52% in test [1] (WITHOUT UPHS). The “Lewis lung carcinoma growth delay, Mean Days” value in test [2] (setting [5]) was found to be 6.3 ± 0.5 days; in test [2] (setting [6]), 5.4 ± 0.4 days. In test [2] (drug + UPHS vs drug), the “Increase of growth delay by addition of UPHS” value is on record as “also enhanced, to a lesser degree”.
`O=P1(NCCCl)OCCCN1CCCl` (centres unmarked) [IFOS, ifosfamide]: the “Subcutaneous 9L Tumor Growth Delay, Mean Days” value in test [3] (Table III, days to 500 mm^3 vs control (19.5 ± 0.5 days), CDDP 8 mg/kg day 7, BCNU 3 x 15, CTX or IFOS 3 x 100 mg/kg, UPHS 8 ml/kg) was found to be 10.4 ± 0.9 days. In addition, the “Increase in tumor growth delay by prior administration of UPHS” value in test [3] (UPHS + drug vs drug alone) worked out at 1.4 fold. Further, the “Effectiveness against subcutaneous 9L tumors” value in test [3] (setting [7]) is “very effective treatments for subcutaneously growing 9L tumors”. The “% Increased from Control (life span)” value in test [4] (Table II, vs untreated control) is 19% and 38%. In addition, the “Survival Days” value in test [4] (Table II, control 26 ± 2.2 days, CDDP 8 mg/kg day 7, BCNU 3 x 15, CTX or IFOS 3 x 100 mg/kg days 7, 9, 11, UPHS 8 ml/kg) was 30.9 days and 35.9 days. For the same compound, in test [4] (UPHS prior to drug, vs untreated control), the “Increase in life span with UPHS prior to the drug therapy” value is given as 38%. In addition, the “Significance of increase in life span, drug alone” value in test [4] (drug alone, 25% or more is therapeutically significant) is recorded as “did not reach significance”. Further, the “Increase in therapeutic response upon addition of UPHS” value in test [4] (intracranial (life span) and subcutaneous (growth delay) 9L tumors) is given as “greatest increases in therapeutic response upon addition of UPHS”. In addition, the “Effectiveness against intracranial 9L tumors” value in test [4] (setting [7]) is recorded as “least effective treatments for intracranial 9L tumors”.
For the compound `CN(C)c1ccc(O)c2c1C[C@H]1C[C@H]3[C@H](N(C)C)C(O)=C(C(N)=O)C(=O)[C@@]3(O)C(O)=C1C2=O` [Mino, minocycline hydrochloride], the “Lung Metastases” value in test [1] (WITH UPHS) and in test [1] (WITHOUT UPHS) was 20 throughout. Further, the “Lung Metastases (% Large)” value in test [1] (WITH UPHS) was found to be 65%; in test [1] (WITHOUT UPHS), 50%. In addition, the “Lewis lung carcinoma growth delay, Mean Days” value came out at 1.0 ± 0.4 days in test [2] (setting [5]) and 0.8 ± 0.3 days in test [2] (setting [6]).
With `O=C(O)c1cc(-c2ccc(F)cc2F)ccc1O` [Diflun, Diflunisal], the “Lung Metastases” value in test [1] (WITH UPHS) and in test [1] (WITHOUT UPHS) was 20 each time. Besides, the results for the “Lung Metastases (% Large)” value in test [1] (WITH UPHS) and in test [1] (WITHOUT UPHS) were 55% and 51%, respectively. In addition, the “Lewis lung carcinoma growth delay, Mean Days” value in test [2] (setting [5]) was found to be 0.9 ± 0.3 days; in test [2] (setting [6]), 0.3 ± 0.2 days.
As to `CC1=C(CC(=O)O)c2cc(F)ccc2/C1=C\c1ccc([S+](C)[O-])cc1` (centres unmarked) [Sulin, Sulindac], the “Lung Metastases” value in test [1] (WITH UPHS) is 21; in test [1] (WITHOUT UPHS), 19. Also, the results for the “Lung Metastases (% Large)” value in test [1] (WITH UPHS) and in test [1] (WITHOUT UPHS) were 57% and 55%, respectively. In addition, the results for the “Lewis lung carcinoma growth delay, Mean Days” value in test [2] (setting [5]) and in test [2] (setting [6]) were 0.5 ± 0.3 days and 1.2 ± 0.4 days, respectively. The “Effect of addition of NSAIDs (with or without UPHS) to cytotoxic agents on growth delay” value in test [2] (mouse, in vivo) is “providing the best NSAID results”.
